# Reference: PMC7179673, “A New Series of Carlactonoic Acid Based Strigolactone Analogs for Fundamental and Applied Research” (Frontiers in Plant Science, 2020)
# Read-outs that look alike come from different tables or passages of the source.
# How the values were obtained:
# [1] = biological target: T1, ShHTL7 (Striga hermonthica Hyposensitive to Light) (Striga hermonthica, UniProt A0A0M3PNA2); assay: competitive YLG (Yoshimulactone Green) hydrolysis assay with purified protein; assay type: biochemical
# T1 sequence (A0A0M3PNA2 1-271): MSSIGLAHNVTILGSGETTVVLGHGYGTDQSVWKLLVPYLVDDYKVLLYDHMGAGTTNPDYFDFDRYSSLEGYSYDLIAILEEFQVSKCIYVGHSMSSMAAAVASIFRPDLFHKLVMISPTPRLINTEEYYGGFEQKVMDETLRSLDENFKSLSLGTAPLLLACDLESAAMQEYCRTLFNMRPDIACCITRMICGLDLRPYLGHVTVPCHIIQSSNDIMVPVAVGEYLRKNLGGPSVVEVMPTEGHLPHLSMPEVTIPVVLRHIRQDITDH
# OsD14 = biological target: T2, OsD14 (Oryza sativa, UniProt Q10QA5); assay: as above; assay type: biochemical
# T2 construct: gene D14
# T2 sequence (Q10QA5 1-318): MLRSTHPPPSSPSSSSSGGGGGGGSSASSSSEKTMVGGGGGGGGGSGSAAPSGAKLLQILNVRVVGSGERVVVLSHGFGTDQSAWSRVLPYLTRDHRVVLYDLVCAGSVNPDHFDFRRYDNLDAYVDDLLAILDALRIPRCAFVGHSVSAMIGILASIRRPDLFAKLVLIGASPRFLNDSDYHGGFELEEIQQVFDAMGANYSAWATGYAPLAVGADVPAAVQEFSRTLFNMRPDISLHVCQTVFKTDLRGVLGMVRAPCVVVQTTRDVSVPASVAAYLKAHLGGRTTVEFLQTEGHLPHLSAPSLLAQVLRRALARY
IC50 ([1]; read-out: IC50) [nM],Compound,IC50 [1] [nM],IC50 (OsD14) [nM]
,"CC1=C[C@H](O/C=C2/C(=O)O[C@@H]3c4ccccc4C[C@H]23)OC1=O (racemic) [GR24, rac-GR24]",980 ± 260,1040 ± 90
4370 ± 210,"CC1=CC(O/C=C(\C(=O)N(C)C)c2ccccc2)OC1=O (stereo not drawn) [MP16, (Z)-N,N-Dimethyl-3-((4-methyl-5-oxo-2,5-dihydrofuran-2-yl)oxy)-2-phenylacrylamide]",,
